Test results published in PMC3350427, “In vitro antiproliferative/cytotoxic activity on cancer cell lines of a cardanol and a cardol enriched from Thai Apis mellifera propolis” (BMC Complementary and Alternative Medicine, 2012).
≈ marks a conversion by molar mass, not a printed value. Where “and” joins values, the source holds several entries; their conditions need not be identical. Identical values can stand only once. Like-named read-outs stand apart in the source and are kept apart here.

What was measured:
HeLa tumor cells = tested on: HeLa tumor cells; set-up: method as in PMID 19497755; conditions: cited from earlier work
B16-F10 melanoma cells = tested on: B16-F10 melanoma cells; set-up: method as in PMID 20623613; conditions: cited from earlier work
[1] = tested on: human colorectal cancer cell line (CRC); set-up: method as in PMID 15996024; conditions: 72 h treatment, cited from earlier work
[2] = tested on: BT474 cells (duet carcinoma); experiment: MTT antiproliferative/cytotoxic assay, BT474; type: cell-based, human; conditions: for IC50: Homo sapiens, BT-474, BT474, 72 h exposure, MTT, read-out: IC50, in vitro antiproliferative/cytotoxic activity
Excerpt: (§1) The five selected cancer cell lines used in this research were derived from human duet carcinoma (BT474, ATCC No. HTB 20), undifferentiated lung (Chaco I, National Cancer Institute), liver hepatoblastoma (Hep-G2, ATCC No. HB8065), gastric carcinoma (KATO-III, ATCC No. HTB 103) and human colon adenocarcinoma (SW620, ATCC No. CCL 227) cancers. In addition, the non-transformed human foreskin fibroblast cell line (Hs27, ATCC No. CRL 1634) was used as a comparative control. All cell lines were obtained from the Institute of Biotechnology and Genetic Engineering, Chulalongkorn University. The five cancer cell lines were cultured in RPMI 1640 medium containing 5% (v/v) fetal calf serum (FCS), while the Hs27 cell line was cultured in Basal Iscove medium containing 5% (v/v) FCS, at 37°C with 5% (v/v) CO2 [28].
(§2) The MTT assay was performed as reported by Santos et al. and Hernandez et al.. […] The supernatant was then removed, the cells permeabilized and the formazan crystals dissolved by aspiration in 150 μl of DMSO and 25 μl of 0.1 M glycine prior to measuring the absorbance at 540 nm by a microplate reader. […] By assuming an equal mitochondrial metabolic activity per living cell, the absorbance is then related to the relative number of viable cells and so is reduced, relative to the control, by any antiproliferation and/or cytotoxic activity of the test compound.
The absorbance at 540 nm of the test compound treated cancer cells and the solvent only control was used to calculate the relative number of viable cells, setting that for the control as 100%. The relative number of viable cells, as a % of the control, was then calculated as follows: […]
(§3) where (Abs of sample) and (Abs of control) are defined as the absorbance at 540 nm of the treated cells and the control cells, respectively.
The IC50 values were graphically obtained by plotting the absorbance obtained against the corresponding different concentrations of the test compound used, and are reported as the mean ± 1 standard error (SE). Data were statistically analyzed using the Kruskal-Wallis One Way Analysis of Variance. […]

[3] = tested on: KATO-III cells (gastric carcinoma); experiment: MTT antiproliferative/cytotoxic assay, KATO-III; type: cell-based; conditions: Homo sapiens, 72 h exposure, read-out: IC50, in vitro antiproliferative/cytotoxic activity
Excerpt: as §1, with “The five cancer cell lines were cultured in RPMI 1640 medium containing 5% (v/v) fetal calf serum (FCS), while the Hs27 cell line was cultured in Basal Iscove medium containing 5% (v/v) FCS, at 37°C with 5% (v/v) CO2 [28].” left out
as §2
(§4) The absorbance at 540 nm of the test compound treated cancer cells and the solvent only control was used to calculate the relative number of viable cells, setting that for the control as 100%. […]

[4] = tested on: Hep-G2 cells (liver hepatoblastoma); experiment: MTT antiproliferative/cytotoxic assay, Hep-G2; type: cell-based; conditions: Homo sapiens, HepG2, Hep-G2, 72 h exposure, read-out: IC50, in vitro antiproliferative/cytotoxic activity
Excerpt: as §1, with “The five cancer cell lines were cultured in RPMI 1640 medium containing 5% (v/v) fetal calf serum (FCS), while the Hs27 cell line was cultured in Basal Iscove medium containing 5% (v/v) FCS, at 37°C with 5% (v/v) CO2 [28].” left out
as §2, §4

[5] = tested on: Chaco cells (undifferentiated lung cancer); experiment: MTT antiproliferative/cytotoxic assay, Chaco; type: cell-based; conditions: Homo sapiens, 72 h exposure, read-out: IC50, in vitro antiproliferative/cytotoxic activity
Excerpt: as §1, with “The five cancer cell lines were cultured in RPMI 1640 medium containing 5% (v/v) fetal calf serum (FCS), while the Hs27 cell line was cultured in Basal Iscove medium containing 5% (v/v) FCS, at 37°C with 5% (v/v) CO2 [28].” left out
as §2, §4

SW620 cells [6] = experiment: Cell morphology in culture, SW620; type: cell-based, human; conditions: at IC50 ([…] / 3.0 μg/ml)
Protocol: (§5) The morphology of the SW620 or Hs27 cells treated with each test compound was compared to those treated with only the DMSO solvent as the control. Cells were released by standard trypsin and aspiration, centrifugally washed at 2,000 × g at 15-25°C for 5 min and finally the cell pellet was resuspended in 200 μl of PBS. To this 20 μl of proteinase K (> 600 mAU/ml) was added and total DNA was extracted using a QIAMP mini kit (Qiagen, cat. no. 51304), as per the manufacturer's instructions. […] After electrophoresis, the gel was stained with 10 μg/ml of ethidium bromide (EtBr) for 10 min, destained in distilled water for 20 min and the DNA visualized by ultraviolet transillumination.

Hs27 cells [7] = experiment: DNA fragmentation (agarose-TBE gel), Hs27; type: cell-based, human; conditions: Hs27, 72 h
Protocol: as §5

[8] = MTT antiproliferative/cytotoxic assay, non-transformed Hs27; type: cell-based; conditions: human, Hs27 non-transformed foreskin fibroblast cells, read-out: IC50, in vitro antiproliferative/cytotoxic activity
Excerpt: as §1, with “The five cancer cell lines were cultured in RPMI 1640 medium containing 5% (v/v) fetal calf serum (FCS), while the Hs27 cell line was cultured in Basal Iscove medium containing 5% (v/v) FCS, at 37°C with 5% (v/v) CO2 [28].” left out
as §2, §4

Hs27 cells [9] = experiment: Cell morphology in culture, Hs27; type: cell-based, human; conditions: Hs27, up to 96 h, same doses as for SW620
Protocol: as §5

[10] = tested on: SW620 cells (colon adenocarcinoma); experiment: MTT antiproliferative/cytotoxic assay, SW620; type: cell-based, human; conditions: for IC50 / IC50, in vitro antiproliferative/cytotoxic activity: SW620, 72 h exposure, MTT; for IC50: read-out: IC50, in vitro antiproliferative/cytotoxic activity
Excerpt: as §1
The MTT assay was performed as reported by Santos et al. and Hernandez et al.. For each of the five cancer cell lines, 5 × 10^3 cells in 200 μl of RPMI 1640 medium containing 5% (v/v) FCS were transferred per well of a 96 well tissue culture plate, and incubated at 37°C in 5% (v/v) CO2 for 24 h prior to the addition of 2 μl/well of the test extract in dimethylsulfoxide (DMSO) at various final concentrations. The addition of 2 μl/well of DMSO alone was used as the control. Cells were then incubated as above for 72 h before 10 μl of 5 mg/ml MTT was added and incubated for another 4 h. The supernatant was then removed, the cells permeabilized and the formazan crystals dissolved by aspiration in 150 μl of DMSO and 25 μl of 0.1 M glycine prior to measuring the absorbance at 540 nm by a microplate reader. Three replications of each trial were performed. By assuming an equal mitochondrial metabolic activity per living cell, the absorbance is then related to the relative number of viable cells and so is reduced, relative to the control, by any antiproliferation and/or cytotoxic activity of the test compound.
The absorbance at 540 nm of the test compound treated cancer cells and the solvent only control was used to calculate the relative number of viable cells, setting that for the control as 100%. The relative number of viable cells, as a % of the control, was then calculated as follows:
Therelative(% )numberofviablecells = (Absofsample)×100/(Absofcontrol)
as §3
The IC50 values were graphically obtained by plotting the absorbance obtained against the corresponding different concentrations of the test compound used, and are reported as the mean ± 1 standard error (SE). Data were statistically analyzed using the Kruskal-Wallis One Way Analysis of Variance. Significance was accepted at the P < 0.05 level.

[11] = tested on: five cancer cell lines and the control Hs27 cell line; experiment: MTT assay, summary over the five cancer cell lines and Hs27; type: cell-based; conditions: Homo sapiens, 72 h exposure, read-out: IC50 values, range across the five cancer cell lines and the control Hs27 cell line
Excerpt: as §1, with “The five cancer cell lines were cultured in RPMI 1640 medium containing 5% (v/v) fetal calf serum (FCS), while the Hs27 cell line was cultured in Basal Iscove medium containing 5% (v/v) FCS, at 37°C with 5% (v/v) CO2 [28].” left out
as §2, §4

SW620 cells [12] = experiment: DNA fragmentation (agarose-TBE gel), SW620; type: cell-based, human; conditions: SW620, 72 h at IC50, agarose-TBE gel
Protocol: as §5

[13] = tested on: five human cancer cell lines (BT474, Chaco, Hep-G2, KATO-III, SW620); experiment: MTT assay, summary over the five cancer cell lines; type: cell-based; conditions: 72 h exposure, read-out: IC50 values, range across the five cancer cell lines
Excerpt: as §1, with “The five cancer cell lines were cultured in RPMI 1640 medium containing 5% (v/v) fetal calf serum (FCS), while the Hs27 cell line was cultured in Basal Iscove medium containing 5% (v/v) FCS, at 37°C with 5% (v/v) CO2 [28].” left out
as §2, §4

[14] = read-out: IC50, antiproliferative activity
[15] = mean ± 1 SE, ND in Table 4 = no IC50 obtained, no significant activity in tested concentration range

For `CC(C)=CC[C@H]1C[C@@]2(CC=C(C)C)C(=O)[C@](C(=O)c3ccccc3)(C(=O)C3=C2O[C@H](C(C)(C)O)C3)C1(C)C` [hyperibone A], the “IC50, antiproliferative activity” value (HeLa tumor cells) is given as 0.091 µg/mL (≈ 0.175 µM) and the IC50 (HeLa tumor cells; [14]) is given as 0.176 µM.
For `CCCCCCCCCCCCCCCc1cc(O)cc(O)c1` [cardol (C15:0)], the “IC50, cytotoxicity” value (B16-F10 melanoma cells) is given as 8.352 µg/mL (≈ 26.1 µM), the complete lethality concentration (B16-F10 melanoma cells) is given as 40 μM and 13.92 μg/ml and the IC50 (B16-F10 melanoma cells; read-out: IC50, cytotoxicity) is given as 24 µM.
For `O=C(/C=C/c1ccc(O)c(O)c1)OCCc1ccccc1` [CAPE, caffeic acid phenethyl ester], the IC50 [1, 14] is given as 22.7 µM, the “IC50, antiproliferative activity” value [1] is given as 6.47 µg/mL (≈ 22.8 µM) and the “fold higher IC50 of CAPE than compound 2 (cardol) on BT474” value ([2]; in terms of molarity, CAPE on MDA-231/MCF-7) is given as ~1.5 fold.
`CCCCCCCCCCCCCCCc1cc(O)cc(O)c1` [Compound 2] gave an IC50 [3, 15] of 4.03 ± 0.13 µg/mL, an IC50 [3] of 8.78 ± 0.28 µM and an IC50 [4, 15] of 5.97 ± 0.15 µg/mL. The IC50 [4] was 1.3 ± 0.33 µM, the IC50 [5, 15] was 5.78 ± 0.07 µg/mL and the IC50 [5] was 12.6 ± 0.15 µM. For the same molecule, the cell morphology (SW620 cells [6]; SW620, 24 h) was “No significant change in the cell morphology”, the cell morphology (SW620 cells [6]; SW620, 48 h) was “vacuolation could be seen inside the cells” and the cell morphology (SW620 cells [6]; SW620, 72 h) was “apparent DNA condensation within the nucleus was visible”. For the same molecule, the cell morphology (SW620 cells [6]; SW620, 96 h) was “significantly higher levels of cells with DNA condensation within their nucleus”, the “evidence of fragmentation of the DNA” value (Hs27 cells [7]) was “neither as an apoptotic ladder nor a general degradation smear” and the IC50 at 72 h ([8]; Hs27, 72 h exposure) was 1.3 ± 0.33 µM. For the same molecule, the IC50 at 72 h ([8]; Hs27 non-transformed control, 72 h exposure, mean ± 1 SE) was 5.97 ± 0.15 µg/mL, the cell morphology (Hs27 cells [9]) was “no morphological changes were observed” and the IC50 [2, 15] was 4.41 ± 0.15 µg/mL. For the same molecule, the IC50 [2] was 9.61 ± 0.33 µM, the IC50 ([10]; Homo sapiens, SW-620, 72 h, mean ± 1 SE, ND in Table 4 = no IC50 obtained, no significant activity in tested concentration range) was 3 µg/mL and the IC50 ([10]; Homo sapiens, SW-620, 72 h) was 6.54 µM. The “IC50, in vitro antiproliferative/cytotoxic activity” value [10, 15] was < 3.125 µg/mL, the “IC50, in vitro antiproliferative/cytotoxic activity” value ([10]; mean ± 1 SE, ND in Table 4 = no IC50 obtained, no significant activity in tested concentration range, listed as compound 2) was < 3.13 µg/mL and the IC50 ([10]; listed as compound 2) was < 6.8 µM. The IC50 [10] was < 6.81 µM, the “fold lower IC50 on SW620 than IC50 of CAPE on CRC” value ([10]; in terms of molarity) was “over 3.3 fold” and the IC50 [11] was 3.13 µg/mL to 5.97 µg/mL and 6.82 µM to 13 µM. For the same molecule, the “evidence of fragmentation of the DNA” value (SW620 cells [12]) was “neither as an apoptotic ladder nor a general degradation smear” and the IC50 [13] was 3.13 µg/mL to 6 µg/mL and 6.82 µM to 13.1 µM.
